Reference: patent US20260297060A1, “COMPOUNDS FOR THE DEGRADATION OF MUTANT BRAF” (C4 THERAPEUTICS, INC., priority 2023, published 2026)
Read-outs that look alike come from different tables or passages of the source.

Columns and labels:
A375 = A375 cell viability assay (Example 15); assay type: cell-based, human
Description: FIG. 83 is a line graph showing the results of Compound 26, Compound 26-NMe, Compound 141, and Compound 141-NMe in an A375 viability assay. The y-axis is viability in % and the x-axis is concentration (nM). The experiment was conducted as described in Example 15.
This robust degradation activity is surprising in view of the minimal inhibition-based activity of selected compounds. […] However, the degradation deficient versions of Compound 26 and Compound 141 (N-methyl analogs) had minimal effect on cell viability at a concentration of 100 nM (see FIG. 83 and Example 15).

[1] = Pharmacokinetics in female BALB/c nude mice bearing A375 xenografts, 1 day dosing (PK and PD study): plasma, tumor and brain concentrations, AUC; assay type: in vivo; conditions: for Mean Concentration in Brain ± SEM / Mean Concentration in Plasma ± SEM / Mean Concentration in Tumor ± SEM: BQL: below the lower limit of quantitation; for AUC at 24 h: read-out: Brain AUC at 24 hours, Average
Text: The concentrations of Dabrafenib, Compound 26 and Compound 141 in the treatment of female BALB/c nude mice bearing A375 xenografts are shown in Table 62-Table 72 and FIG. 52-FIG. 73.

[2] = 1.5 mg/kg p.o. BID × 1 day, post 2nd dose, 48 h
[3] = 2 mg/kg p.o. TID × 1 day, post 3rd dose, 48 h
[4] = 3 mg/kg p.o. BID × 1 day, post 2nd dose, 36 h
[5] = mouse, brain, po, 1.5 mg/kg, 1.5 mg/kg p.o. BID × 1 day, post 2nd dose, read-out: Mean Concentration in Brain ± SEM
[6] = mouse, brain, po, 2 mg/kg, 2 mg/kg p.o. TID × 1 day, post 3rd dose, read-out: Mean Concentration in Brain ± SEM
[7] = mouse, brain, po, 3 mg/kg, 3 mg/kg p.o. BID × 1 day, post 2nd dose, read-out: Mean Concentration in Brain ± SEM
[8] = mouse, brain, po, 6 mg/kg, 6 mg/kg p.o. QD × 1 day, read-out: Mean Concentration in Brain ± SEM
[9] = mouse, brain, po, 10 mg/kg, 10 mg/kg p.o. BID × 1 day, post 2nd dose, read-out: Mean Concentration in Brain ± SEM
[10] = mouse, plasma, po, 1.5 mg/kg, 1.5 mg/kg p.o. BID × 1 day, post 1st dose, read-out: Mean Concentration in Plasma ± SEM
[11] = mouse, plasma, po, 1.5 mg/kg, 1.5 mg/kg p.o. BID × 1 day, post 2nd dose, read-out: Mean Concentration in Plasma ± SEM
[12] = mouse, plasma, po, 2 mg/kg, 2 mg/kg p.o. TID × 1 day, post 1st dose, read-out: Mean Concentration in Plasma ± SEM
[13] = mouse, plasma, po, 2 mg/kg, 2 mg/kg p.o. TID × 1 day, post 2nd dose, read-out: Mean Concentration in Plasma ± SEM
[14] = mouse, plasma, po, 2 mg/kg, 2 mg/kg p.o. TID × 1 day, post 3rd dose, read-out: Mean Concentration in Plasma ± SEM
[15] = mouse, plasma, po, 3 mg/kg, 3 mg/kg p.o. BID × 1 day, post 1st dose, read-out: Mean Concentration in Plasma ± SEM

CCN(C)S(=O)(=O)Nc1ccc(F)c(Oc2ccc3ncn([C@H]4COC5(CCN(C6CC7(C6)CN(c6cc8c(cc6F)c(N6CCC(=O)NC6=O)nn8C)C7)CC5)C4)c(=O)c3c2)c1C#N [Compound 26, (3R)-3-[6-[2-cyano-3-[[ethyl(methyl)sulfamoyl]amino]-6-fluoro-phenoxy]-4-oxo-quinazolin-3-yl]-8-[2-[3-(2,4-dioxohexahydropyrimidin-1-yl)-5-fluoro-1-methyl-indazol-6-yl]-2-azaspiro[3.3]heptan-6-yl]-1-oxa-8-azaspiro[4.5]decane]
cytotoxicity (in words) (A375; A375 cells): potent cytotoxic agents
effect on cancer cell viability (A375; human, a375 cells, 0.1 µM): ≥ 30%
Mean Concentration in Brain ± SEM ([1]; 1.5 mg/kg p.o. BID × 1 day, post 2nd dose, 24 h): BQL^a
Mean Concentration in Brain ± SEM [1, 2]: BQL
Mean Concentration in Plasma ± SEM [1, 2]: BQL
Mean Concentration in Brain ± SEM ([1]; 2 mg/kg p.o. TID × 1 day, post 3rd dose, 24 h): BQL^a
Mean Concentration in Brain ± SEM [1, 3]: BQL
Mean Concentration in Plasma ± SEM [1, 3]: BQL
Mean Concentration in Tumor ± SEM [1, 3]: BQL
Mean Concentration in Brain ± SEM ([1]; 3 mg/kg p.o. BID × 1 day, post 2nd dose, 24 h): BQL^a
Mean Concentration in Brain ± SEM [1, 4]: BQL
Mean Concentration in Tumor ± SEM [1, 4]: BQL
Mean Concentration in Brain ± SEM ([1]; 3 mg/kg p.o. BID × 1 day, post 2nd dose, 48 h): BQL
Mean Concentration in Brain ± SEM ([1]; 6 mg/kg p.o. QD × 1 day, 24 h): BQL^a
Mean Concentration in Brain ± SEM ([1]; 6 mg/kg p.o. QD × 1 day, 48 h): BQL
Mean Concentration in Brain ± SEM ([1]; 10 mg/kg p.o. BID × 1 day, post 2nd dose, 24 h): BQL^a
Mean Concentration in Brain ± SEM ([1]; 10 mg/kg p.o. BID × 1 day, post 2nd dose, 48 h): BQL
concentration at 1 h [1, 5]: 25 ± 3.74 ng/g
concentration at 4 h [1, 5]: 21.8 ± 3.64 ng/g
concentration at 10 h [1, 5]: 9.78 ± 0.841 ng/g
concentration at 1 h [1, 6]: 66.5 ± 11.7 ng/g
concentration at 4 h [1, 6]: 26.9 ± 2.99 ng/g
concentration at 10 h [1, 6]: 23 ± 7.44 ng/g
concentration at 0.25 h [1, 7]: 29.7 ng/g
concentration at 0.5 h [1, 7]: 41 ± 4.05 ng/g
concentration at 1 h [1, 7]: 89.1 ± 25 ng/g
concentration at 2 h [1, 7]: 99.5 ± 11.9 ng/g
concentration at 4 h [1, 7]: 35.8 ± 6.52 ng/g
concentration at 10 h [1, 7]: 14.5 ± 0.737 ng/g
concentration at 1 h [1, 8]: 167 ± 27.6 ng/g
concentration at 4 h [1, 8]: 79.2 ± 21.8 ng/g
concentration at 10 h [1, 8]: 30.8 ± 8.11 ng/g
concentration at 1 h [1, 9]: 313 ± 41.7 ng/g
concentration at 4 h [1, 9]: 185 ± 18.2 ng/g
concentration at 10 h [1, 9]: 80.4 ± 8.59 ng/g
AUC at 24 h ([1]; mouse, brain, po, 1.5 mg/kg p.o. BID × 1 day): 233 ng·h/mL
AUC at 24 h ([1]; mouse, brain, po, 2 mg/kg p.o. TID × 1 day): 451 ng·h/mL
AUC at 24 h ([1]; mouse, brain, po, 3 mg/kg p.o. BID × 1 day): 522 ng·h/mL
AUC at 24 h ([1]; mouse, brain, po, 6 mg/kg p.o. QD × 1 day): 915 ng·h/mL
AUC at 24 h ([1]; mouse, brain, po, 10 mg/kg p.o. BID × 1 day): 2100 ng·h/mL
concentration at 0.25 h [1, 10]: 1180 ± 103 ng/mL
concentration at 0.5 h [1, 10]: 2620 ± 182 ng/mL
concentration at 1 h [1, 10]: 3790 ± 553 ng/mL
concentration at 2 h [1, 10]: 3090 ± 346 ng/mL
concentration at 4 h [1, 10]: 1110 ± 339 ng/mL
concentration at 8 h [1, 10]: 318 ± 78.2 ng/mL
concentration at 12 h ([1]; mouse, plasma, po, 1.5 mg/kg, 1.5 mg/kg p.o. BID × 1 day, post 1st dose, 12 h, read-out: Mean Concentration in Plasma ± SEM): 121 ± 6.74 ng/mL
concentration at 0.25 h [1, 11]: 629 ± 24.4 ng/mL
concentration at 0.5 h [1, 11]: 1580 ± 108 ng/mL
concentration at 1 h [1, 11]: 1820 ± 86.6 ng/mL
concentration at 2 h [1, 11]: 2930 ± 312 ng/mL
concentration at 4 h [1, 11]: 1740 ± 355 ng/mL
concentration at 10 h [1, 11]: 541 ± 95.8 ng/mL
concentration at 24 h ([1]; mouse, plasma, po, 1.5 mg/kg, 1.5 mg/kg p.o. BID × 1 day, post 2nd dose, 24 h, read-out: Mean Concentration in Plasma ± SEM): 4.74 ± 1.31 ng/mL
concentration at 36 h ([1]; mouse, plasma, po, 1.5 mg/kg, 1.5 mg/kg p.o. BID × 1 day, post 2nd dose, 36 h, read-out: Mean Concentration in Plasma ± SEM): 0.889 ng/mL
concentration at 0.25 h [1, 12]: 1600 ± 272 ng/mL
concentration at 0.5 h [1, 12]: 2880 ± 289 ng/mL
concentration at 1 h [1, 12]: 3720 ± 77.7 ng/mL
concentration at 2 h [1, 12]: 2930 ± 635 ng/mL
concentration at 4 h [1, 12]: 1420 ± 56.7 ng/mL
concentration at 8 h [1, 12]: 283 ± 80.3 ng/mL
concentration at 0.25 h [1, 13]: 1390 ± 84.1 ng/mL
concentration at 2 h [1, 13]: 2720 ± 466 ng/mL
concentration at 8 h [1, 13]: 580 ± 166 ng/mL
concentration at 0.25 h [1, 14]: 1090 ± 75.2 ng/mL
concentration at 0.5 h [1, 14]: 2630 ± 81.7 ng/mL
concentration at 1 h [1, 14]: 3780 ± 584 ng/mL
concentration at 2 h [1, 14]: 3680 ± 376 ng/mL
concentration at 4 h [1, 14]: 1770 ± 127 ng/mL
concentration at 10 h [1, 14]: 1250 ± 411 ng/mL
concentration at 24 h ([1]; mouse, plasma, po, 2 mg/kg, 2 mg/kg p.o. TID × 1 day, post 3rd dose, 24 h, read-out: Mean Concentration in Plasma ± SEM): 9.4 ± 3.31 ng/mL
concentration at 36 h ([1]; mouse, plasma, po, 2 mg/kg, 2 mg/kg p.o. TID × 1 day, post 3rd dose, 36 h, read-out: Mean Concentration in Plasma ± SEM): 1.45 ng/mL
concentration at 0.25 h [1, 15]: 3010 ± 401 ng/mL
concentration at 0.5 h [1, 15]: 8140 ± 2030 ng/mL
concentration at 1 h [1, 15]: 7840 ± 1330 ng/mL
concentration at 2 h [1, 15]: 6910 ± 1450 ng/mL
